PMC3792958, “Olomoucine II, but Not Purvalanol A, Is Transported by Breast Cancer Resistance Protein (ABCG2) and P-Glycoprotein (ABCB1)” (PLoS ONE, 2013)
Blank lines part the entries; values can stand above or below the compound they belong to.

Key:
ABCG2 [1] = tested on: ABCG2; parameters: method as in PMID 18841444; conditions: in vitro hematoporphyrin transport, Sf9 membrane vesicles; cited from earlier work
ABCG2 [2] = conditions: cited from earlier work; for inhibition of ABCG2: in vitro and in situ levels
[3] = Cellular monolayer transport assay, parental MDCKII-par cells; conditions: dog, MDCK
Protocol: (§1) ABCG2- and ABCB1-transduced MDCKII sublines (MDCKII-ABCG2 and MDCKII-ABCB1), which stably express ABCG2 and ABCB1 protein, respectively, were purchased from dr. Alfred Schinkeĺs lab (The Netherlands Cancer Institute, Amsterdam, The Netherlands). These transduced sublines as well as the parental MDCKII cell line (MDCKII-par) were routinely cultured in complete Dulbecco’s modified Eagle’s medium with 10% fetal bovine serum. 100 U/ml penicillin and 100 µg/ml streptomycin were used while growing the cells on the membrane inserts. All cells were routinely cultivated in antibiotic-free medium and periodically tested for mycoplasma contamination. […] Cells from passages 15 to 25 were used in all in vitro studies. Dimethyl sulfoxide was applied as a CDKi solvent in concentrations not exceeding 0.1%.
(§2) MDCKII-ABCG2, MDCKII-ABCB1 or MDCKII-par cells were seeded at a density of 1×10^6 per insert 72 h before experiment. The medium was replaced after 24 and 48 h of cultivation. One hour before the start of the experiment, the cells were washed with prewarmed 1×phospate buffered saline on both the apical and basal sides and Opti-MEM with or without fumitremorgin C or LY335979 was added into both compartments. At time 0, the experiment was started by replacing the medium with fresh Opti-MEM with or without CDKi and fumitremorgin C or LY335979 in the appropriate chamber. Samples were taken every 2 h from the opposite chambers for the duration of the experiment (6 h). Concentration of CDKi was determined via HPLC/MS analysis. Immediately after the experiment, cellular monolayer integrity was examined using fluorescein isothiocyanate labeled dextran (MW = 40 kDa). Dextran leakage was accepted up to 1% per hour.
(§3) HPLC/MS analysis using LC 20A Prominence chromatographic system (Shimadzu, Kyoto, Japan) coupled with LCQ Max advantage mass spectrometer (Thermo Finnigan, San Jose, CA, USA) was used for the quantification of olomoucine II and purvalanol A. The separation was performed on a Hypersil GOLD C18 column (100 × 4.6 mm, particle size 3 µm) protected with an OPTI-GUARD 1 mm guard column C18. The mobile phase flow rate was 0.35 ml/min and the column temperature was maintained at 40°C. The data were processed using Xcalibur 2.0 software (Thermo Finnigan, San Jose, CA, USA).
(§4) The detector was set as follows: spray voltage of 4.5 kV, capillary temperature of 320°C, sheet and auxiliary gas flows of 30 and 12 arbitrary units, respectively. […] The collision energies were 38% and 40% for olomoucine II and IS, respectively. […] The sample stability was evaluated within 94 h.
as §4, with “5.5” for “4.5”, “340°C,” for “320°C,”, “28” for “30”, “13” for “12”, “purvalanol A” for “olomoucine II”, “hours.” for “h.”
(§5) Transport of olomoucine II by ABCG2 and ABCB1 was tested in vitro using transport assays across the polarized monolayers of MDCKII-ABCG2 and MDCKII-ABCB1 cells, respectively. In this method, the transport across the monolayer is greatly accelerated in the basolateral to apical direction, when the compound is a substrate of examined transporter. Based on our previous studies, three olomoucine II concentrations (100 nM, 1 µM and 10 µM) were tested and transport ratios (r; olomoucine II transport in basolateral to apical direction divided by transport in apical to basolateral direction) 2 h after olomoucine II addition were calculated.

MDCKII-par cells = test: as above; conditions: olomoucine II 100 nM and 1 µM, 2 h, 1 µM LY335979 (endogenous canine Abcb1 inhibitor)
Protocol: as §1, §2, §3, §4
as §4, with “5.5” for “4.5”, “340°C,” for “320°C,”, “28” for “30”, “13” for “12”, “purvalanol A” for “olomoucine II”, “hours.” for “h.”
as §5

ABCG2 [4] = molecular target: T1, ABCG2 (Homo sapiens, UniProt Q9UNQ0); test: Cellular monolayer transport assay, MDCKII-ABCG2 cells
T1 sequence (Q9UNQ0 1-655): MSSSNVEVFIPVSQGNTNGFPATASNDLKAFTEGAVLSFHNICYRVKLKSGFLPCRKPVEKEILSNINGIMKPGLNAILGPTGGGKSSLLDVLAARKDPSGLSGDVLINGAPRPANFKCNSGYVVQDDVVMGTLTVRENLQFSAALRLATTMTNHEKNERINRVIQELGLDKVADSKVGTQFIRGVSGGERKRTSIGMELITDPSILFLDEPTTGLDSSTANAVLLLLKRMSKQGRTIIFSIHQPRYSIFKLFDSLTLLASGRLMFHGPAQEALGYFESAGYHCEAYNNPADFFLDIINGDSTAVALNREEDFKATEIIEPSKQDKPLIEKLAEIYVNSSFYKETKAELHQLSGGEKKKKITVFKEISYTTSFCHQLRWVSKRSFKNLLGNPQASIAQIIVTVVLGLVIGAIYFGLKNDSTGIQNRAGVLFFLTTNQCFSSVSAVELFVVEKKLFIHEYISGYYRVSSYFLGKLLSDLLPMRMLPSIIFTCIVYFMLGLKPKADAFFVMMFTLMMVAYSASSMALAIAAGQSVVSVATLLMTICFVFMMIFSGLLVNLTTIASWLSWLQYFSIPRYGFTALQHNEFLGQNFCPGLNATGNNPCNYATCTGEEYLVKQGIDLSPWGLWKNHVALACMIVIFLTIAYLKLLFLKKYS
Protocol: as §1, §2, §3, §4
as §4, with “5.5” for “4.5”, “340°C,” for “320°C,”, “28” for “30”, “13” for “12”, “purvalanol A” for “olomoucine II”, “hours.” for “h.”
as §5

ABCG2 [5] = test: as above; conditions: human
Protocol: as §1, §2, §3, §4
as §4, with “5.5” for “4.5”, “340°C,” for “320°C,”, “28” for “30”, “13” for “12”, “purvalanol A” for “olomoucine II”, “hours.” for “h.”
as §5

ABCB1 [6] = molecular target: ABCB1 (Homo sapiens, UniProt P08183); test: Cellular monolayer transport assay, MDCKII-ABCB1 cells
Protocol: as §1, §2, §3, §4
as §4, with “5.5” for “4.5”, “340°C,” for “320°C,”, “28” for “30”, “13” for “12”, “purvalanol A” for “olomoucine II”, “hours.” for “h.”
as §5

ABCB1 [7] = test: as above; conditions: human
Protocol: as §1, §2, §3, §4
as §4, with “5.5” for “4.5”, “340°C,” for “320°C,”, “28” for “30”, “13” for “12”, “purvalanol A” for “olomoucine II”, “hours.” for “h.”
as §5

[8] = tested on: ABCG2-expressing cell lines; conditions: combination method of Chou-Talalay; cited from earlier work
MDCKII cells = test: Generation of sulfated conjugate in MDCKII cells (HPLC/MS); assay type: in vitro ADME, canine; conditions: MDCKII-ABCG2, MDCKII-ABCB1 and MDCKII-par; MS analysis
Protocol: Concentration of CDKi was determined via HPLC/MS analysis. […] Dextran leakage was accepted up to 1% per hour.
In olomoucine II transport experiments, we recorded time-dependent generation of an unknown peak in the fifth minute of HPLC analysis in all three cell lines tested (MDCKII-ABCG2, MDCKII-ABCB1 and MDCKII-par). Based on the MS analysis, the compound was identified as a sulfated conjugate of olomoucine II (Fig. 2). […] On the other hand, the amount of sulfated metabolite increased with time and caused remarkable distortion of the results of parent compound. Therefore, when analyzing the data of unconjugated olomoucine II, the time interval was shortened to 2 hours in order to reduce the misrepresenting effect of sulfated olomoucine II. Considering ionic nature of sulfated olomoucine II, it is obvious that this compound cannot escape from the cells via passive diffusion but must utilize special transport system(s). Relative quantification of olomoucine II sulfate allowed us to describe its pharmacokinetic behavior in all MDCKII cell sublines.
Figure 2 Mass spectra of an unknown peak eluted in the fifth minute of HPLC analysis of olomoucine II transport. (A) spectrum in positive mode, (B) MS^2 in positive mode, (C) negative mode, (D) MS^2 in negative mode. […]

[9] = tested on: multidrug resistance associated protein 2 (ABCC2); parameters: method as in PMID 20699410; conditions: cited from earlier work
[10] = tested on: multidrug resistance associated protein 1 (ABCC1); parameters: method as in PMID 20699410; conditions: cited from earlier work
ABCG2 [11] = conditions: cited from earlier work
ABCB1 [12] = conditions: bovine brain microvessel endothelial cell monolayers; cited from earlier work

Chain of ABCB1 (Homo sapiens, UniProt P08183) (P08183 whole entry): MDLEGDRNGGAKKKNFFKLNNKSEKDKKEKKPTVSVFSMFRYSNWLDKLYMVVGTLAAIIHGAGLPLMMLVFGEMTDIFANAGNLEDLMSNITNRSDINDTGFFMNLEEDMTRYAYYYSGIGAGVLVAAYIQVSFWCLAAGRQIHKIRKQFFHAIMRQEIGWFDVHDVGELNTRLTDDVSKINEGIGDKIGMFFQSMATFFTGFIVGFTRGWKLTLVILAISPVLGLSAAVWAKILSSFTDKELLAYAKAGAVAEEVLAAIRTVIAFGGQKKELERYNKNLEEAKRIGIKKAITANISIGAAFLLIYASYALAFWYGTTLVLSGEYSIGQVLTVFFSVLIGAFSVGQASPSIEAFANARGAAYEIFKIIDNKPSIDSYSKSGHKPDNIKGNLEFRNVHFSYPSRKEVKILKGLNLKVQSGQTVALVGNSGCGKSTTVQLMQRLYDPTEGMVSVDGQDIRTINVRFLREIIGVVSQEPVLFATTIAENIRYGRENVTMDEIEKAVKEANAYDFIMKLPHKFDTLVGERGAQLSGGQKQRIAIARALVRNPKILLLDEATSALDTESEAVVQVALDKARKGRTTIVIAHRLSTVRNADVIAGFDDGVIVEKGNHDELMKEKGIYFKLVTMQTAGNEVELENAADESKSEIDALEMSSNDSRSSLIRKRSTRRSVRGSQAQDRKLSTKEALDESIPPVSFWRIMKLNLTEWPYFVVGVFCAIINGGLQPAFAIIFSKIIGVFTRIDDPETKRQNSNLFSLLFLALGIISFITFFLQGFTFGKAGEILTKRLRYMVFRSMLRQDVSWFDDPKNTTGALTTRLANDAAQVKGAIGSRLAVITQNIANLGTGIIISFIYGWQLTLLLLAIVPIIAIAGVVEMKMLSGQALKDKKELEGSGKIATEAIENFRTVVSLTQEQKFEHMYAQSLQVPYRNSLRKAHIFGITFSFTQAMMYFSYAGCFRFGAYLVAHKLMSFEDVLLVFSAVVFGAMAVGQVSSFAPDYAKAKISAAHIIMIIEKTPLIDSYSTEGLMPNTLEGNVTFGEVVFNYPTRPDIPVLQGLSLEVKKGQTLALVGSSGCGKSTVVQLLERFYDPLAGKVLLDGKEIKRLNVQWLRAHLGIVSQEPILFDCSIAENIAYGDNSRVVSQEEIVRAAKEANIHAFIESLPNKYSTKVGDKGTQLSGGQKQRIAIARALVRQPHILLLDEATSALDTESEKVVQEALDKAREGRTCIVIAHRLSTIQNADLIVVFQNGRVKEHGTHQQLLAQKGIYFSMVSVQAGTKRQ

Compound: COc1cc2ncnc(Nc3cccc(O)c3)c2cc1OC [WHI-P180]
ABCG2 inhibition (ABCG2 [1]): ABCG2 inhibition

efflux ratio at 2 h, 100 nM [3]: 1.45 | efflux ratio at 2 h, 1 µM [3]: 1.39 | efflux ratio at 2 h, 10 µM [3]: 1.64 | efflux ratio at 2 h, 100 nM (ABCG2 [4]; human): 2.27 | efflux ratio at 2 h, 10 µM (ABCG2 [4]; human): 1.29 | ABCG2 substrate status (ABCG2 [4]; in vitro, MDCKII-ABCG2 monolayers): dual substrate of ABCG2 and ABCB1 | transport ratio r (basolateral to apical divided by apical to basolateral) (ABCG2 [4]; olomoucine II 1 µM, 2 h, without inhibitor): 2.31 | efflux ratio at 2 h, 100 nM (ABCG2 [5]; with fumitremorgin C 5 µM): 1.32 | efflux ratio at 2 h, 1 µM (ABCG2 [5]; with fumitremorgin C 5 µM): 1.21 | asymmetry in transport in MDCKII-ABCB1 cells in comparison with ABCG2 transduced cells (ABCB1 [6]; 100 nM and 1 µM, 2 h): approximately 3 fold | efflux ratio at 2 h, 100 nM (ABCB1 [6]; human, MDCK-MDR1): 6.45 | efflux ratio at 2 h, 1 µM (ABCB1 [6]; human, MDCK-MDR1): 6.83 | efflux ratio at 2 h, 10 µM (ABCB1 [6]; human, MDCK-MDR1): 2.51 | ABCB1 substrate status (ABCB1 [6]; in vitro, MDCKII-ABCB1 monolayers): substrate of ABCB1 | efflux ratio at 2 h, 100 nM (ABCB1 [7]; MDCK-MDR1, with LY335979 1 µM): 1.48 | efflux ratio at 2 h, 1 µM (ABCB1 [7]; MDCK-MDR1, with LY335979 1 µM): 1.83 | transport by placental ABCB1/ABCG2 in perfused rat placenta (placental ABCB1/ABCG2): actively pumped from fetus to mother
Compound: CC[C@H](CO)Nc1nc(NCc2ccccc2O)c2ncn(C(C)C)c2n1 [olomoucine II]
ABCG2 inhibitory potency compared with fumitremorgin C (ABCG2 [2]): comparable or even higher potency than fumitremorgin C | inhibition of ABCG2 (ABCG2 [2]): inhibition of ABCG2 | change in r values after adding LY335979 (MDCKII-par cells): did not observe statistically significant changes | potentiation of the antiproliferative effect of mitoxantrone [8]: synergistically potentiate | sulfatation in MDCKII cells (MDCKII cells): time-dependent generation of a metabolite

efflux ratio at 6 h, 1 µM [3]: 1.14 | efflux ratio at 6 h, 10 µM [3]: 1.05 | ABCG2 substrate status (ABCG2 [4]; human): not an ABCG2 substrate | efflux ratio at 6 h, 1 µM (ABCG2 [4]; human): 1.28 | efflux ratio at 6 h, 10 µM (ABCG2 [4]; human): 1.23 | efflux ratio at 6 h, 1 µM (ABCG2 [5]): 1.33 | efflux ratio at 6 h, 10 µM (ABCG2 [5]): 1.26 | ABCB1 substrate status (ABCB1 [6]; human, MDCK-MDR1): not an ABCB1 substrate | efflux ratio at 6 h, 1 µM (ABCB1 [6]; human, MDCK-MDR1): 1.36 | efflux ratio at 6 h, 10 µM (ABCB1 [6]; human, MDCK-MDR1): 1.26 | efflux ratio at 6 h, 1 µM (ABCB1 [7]; MDCK-MDR1): 1.2 | efflux ratio at 6 h, 10 µM (ABCB1 [7]; MDCK-MDR1): 1.18 | sulfatation in MDCKII cells (MDCKII cells): not subjected to sulfatation
Compound: CC(C)[C@H](CO)Nc1nc(Nc2cccc(Cl)c2)c2ncn(C(C)C)c2n1 [purvalanol A]
ABCG2 inhibitory potency compared with fumitremorgin C (ABCG2 [2]): comparable or even higher potency than fumitremorgin C | inhibition of ABCG2 (ABCG2 [2]): inhibition of ABCG2 | transport by placental ABCB1/ABCG2 in perfused rat placenta (placental ABCB1/ABCG2): showed no interactions with these transporters | potentiation of the antiproliferative effect of mitoxantrone [8]: synergistically potentiate | ABCG2 inhibition (ABCG2 [1]): ABCG2 inhibition

Compound: CC[C@H](CO)Nc1nc(NCc2ccccc2)c2ncn(C(C)C)c2n1 [roscovitine]
transport by ABCC2 [9]: not transported | transport by ABCC1 [10]: not transported | transport by ABCG2 (ABCG2 [11]): not transported | inhibition of ABCB1 (ABCB1 [12]): significant inhibition of ABCB1
